Experimental data published in ChEMBL document CHEMBL1156285, “Stereochemistry-activity relationship of orally active tetralin S1P agonist prodrugs” (Bioorg Med Chem Lett, 2010).
Active and inactive are the calls of the source. The rule behind the calls is not given here.

What was measured:
[1] = target: T1, Sphingosine kinase 2 (Mus musculus) (UniProt Q9JIA7); assay: Induction of mouse SphK2 phosphorylation
T1 sequence (whole entry): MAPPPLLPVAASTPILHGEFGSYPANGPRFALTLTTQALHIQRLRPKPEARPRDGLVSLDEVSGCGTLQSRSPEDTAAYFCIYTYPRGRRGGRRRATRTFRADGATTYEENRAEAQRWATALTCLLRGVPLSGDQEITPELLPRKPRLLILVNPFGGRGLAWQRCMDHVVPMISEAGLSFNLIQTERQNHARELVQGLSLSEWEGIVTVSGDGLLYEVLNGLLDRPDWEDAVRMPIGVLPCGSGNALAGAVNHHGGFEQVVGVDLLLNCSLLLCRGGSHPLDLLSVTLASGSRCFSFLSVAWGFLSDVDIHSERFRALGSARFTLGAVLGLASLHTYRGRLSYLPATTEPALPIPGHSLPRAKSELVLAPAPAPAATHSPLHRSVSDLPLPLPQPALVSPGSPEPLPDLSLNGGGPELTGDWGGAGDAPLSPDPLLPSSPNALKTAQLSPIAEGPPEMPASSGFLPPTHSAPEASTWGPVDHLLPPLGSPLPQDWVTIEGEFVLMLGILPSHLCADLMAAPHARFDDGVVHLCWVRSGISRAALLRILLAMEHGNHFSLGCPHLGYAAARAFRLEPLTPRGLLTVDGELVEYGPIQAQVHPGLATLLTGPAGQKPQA

[2] = target: T2, Sphingosine kinase 2 (Homo sapiens) (UniProt Q9NRA0); assay: Induction of human SphK2 phosphorylation; set-up: concentration or dose not given beside the values
T2 sequence (whole entry): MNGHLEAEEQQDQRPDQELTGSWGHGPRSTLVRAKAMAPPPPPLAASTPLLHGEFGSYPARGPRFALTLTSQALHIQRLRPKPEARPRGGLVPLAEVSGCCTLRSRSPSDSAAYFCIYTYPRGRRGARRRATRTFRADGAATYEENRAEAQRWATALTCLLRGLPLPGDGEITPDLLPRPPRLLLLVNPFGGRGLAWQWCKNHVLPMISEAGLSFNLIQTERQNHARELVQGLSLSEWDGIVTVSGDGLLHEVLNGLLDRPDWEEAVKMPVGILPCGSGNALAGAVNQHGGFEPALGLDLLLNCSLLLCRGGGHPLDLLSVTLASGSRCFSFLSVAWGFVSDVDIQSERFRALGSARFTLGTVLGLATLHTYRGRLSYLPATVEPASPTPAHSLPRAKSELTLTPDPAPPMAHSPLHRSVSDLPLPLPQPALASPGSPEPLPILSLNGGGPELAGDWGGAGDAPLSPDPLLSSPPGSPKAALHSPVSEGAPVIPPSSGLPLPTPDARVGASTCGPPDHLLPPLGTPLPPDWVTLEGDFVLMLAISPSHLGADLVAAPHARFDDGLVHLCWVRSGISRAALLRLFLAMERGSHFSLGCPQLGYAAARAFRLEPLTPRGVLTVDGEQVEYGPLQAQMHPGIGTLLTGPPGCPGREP

[3] = species: Mus musculus; assay: Immunosuppressive activity in mouse assessed as induction of lymphopenia; assay type: functional
[4] = species: Mus musculus; assay: Immunosuppressive activity in mouse assessed as induction of […]; assay type: functional
[5] = tested on: Mus musculus; assay: Immunosuppressive activity in mouse assessed as induction of lymphopenia at 2 mg/kg after 72 hrs; assay type: functional, organism-based; set-up: dose 2 mg/kg
[6] = tested on: Mus musculus; assay: Oral bioavailability in mouse at 2 mg/kg after 72 hrs; assay type: ADME, organism-based; conditions: in vivo
[7] = tested on: Mus musculus; assay: Half life in mouse at 2 mg/kg after 72 hrs; assay type: ADME, organism-based; set-up: dose 2 mg/kg; conditions: in vivo
[8] = target: T3, Sphingosine 1-phosphate receptor 1 (Homo sapiens, UniProt P21453); assay: Agonist activity at human S1P1 receptor assessed as effect on calcium mobilization by Gi dependent whole cell assay; assay type: functional
[9] = target: T4, Sphingosine 1-phosphate receptor 3 (Homo sapiens, UniProt Q99500); assay: Agonist activity at human S1P3 receptor assessed as effect on calcium mobilization by Gi dependent whole cell assay; assay type: functional
[10] = target: T3, Sphingosine 1-phosphate receptor 1; assay: Agonist activity at human S1P1 receptor assessed as effect on calcium mobilization by Gq dependent whole cell assay; assay type: functional
[11] = target: T4, Sphingosine 1-phosphate receptor 3; assay: Agonist activity at human S1P3 receptor assessed as effect on calcium mobilization by Gq dependent whole cell assay; assay type: functional
[12] = target: T5, Sphingosine 1-phosphate receptor 4 (Homo sapiens, UniProt O95977); assay: Agonist activity at human S1P4 receptor assessed as effect on calcium mobilization by Gq dependent whole cell assay; assay type: functional
T5 sequence (O95977 whole entry): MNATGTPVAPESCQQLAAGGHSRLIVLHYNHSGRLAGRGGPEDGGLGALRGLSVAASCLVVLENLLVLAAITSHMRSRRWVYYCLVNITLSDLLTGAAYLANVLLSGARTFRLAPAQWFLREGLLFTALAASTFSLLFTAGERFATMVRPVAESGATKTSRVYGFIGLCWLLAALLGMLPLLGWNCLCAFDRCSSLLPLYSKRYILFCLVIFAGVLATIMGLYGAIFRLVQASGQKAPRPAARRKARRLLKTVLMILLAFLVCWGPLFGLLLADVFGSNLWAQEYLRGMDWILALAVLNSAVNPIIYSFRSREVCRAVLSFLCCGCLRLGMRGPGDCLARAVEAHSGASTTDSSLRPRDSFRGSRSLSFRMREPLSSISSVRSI

[13] = target: Sphingosine 1-phosphate receptor 2 (Homo sapiens, UniProt O95136); assay: Agonist activity at human S1P2 receptor assessed as effect on calcium mobilization by Gq dependent whole cell assay; assay type: functional
[14] = target: Sphingosine 1-phosphate receptor 5 (Homo sapiens, UniProt Q9H228); assay: Agonist activity at human S1P5 receptor assessed as effect on calcium mobilization by Gq dependent whole cell assay; assay type: functional
[15] = tested on: Mus musculus; assay: Immunosuppressive activity in mouse assessed as induction of lymphopenia at 1 mg/kg after 1 week; assay type: functional, organism-based; set-up: dose 1 mg/kg
[16] = tested on: Mus musculus; assay: Oral bioavailability in mouse at 1 mg/kg after 1 week; assay type: ADME, organism-based; conditions: in vivo, 168 h
[17] = Clearance in mouse at 1 mg/kg after 1 week; assay type: ADME, organism-based; set-up: dose 1 mg/kg; conditions: in vivo
[18] = tested on: Mus musculus; assay: Half life in mouse at 1 mg/kg after 1 week; assay type: ADME, organism-based; set-up: dose 1 mg/kg; conditions: in vivo, 168 h
[19] = tested on: Mus musculus; assay: Vd in mouse at 1 mg/kg after 1 week; conditions: in vivo, 168 h

T3 sequence (P21453 whole entry): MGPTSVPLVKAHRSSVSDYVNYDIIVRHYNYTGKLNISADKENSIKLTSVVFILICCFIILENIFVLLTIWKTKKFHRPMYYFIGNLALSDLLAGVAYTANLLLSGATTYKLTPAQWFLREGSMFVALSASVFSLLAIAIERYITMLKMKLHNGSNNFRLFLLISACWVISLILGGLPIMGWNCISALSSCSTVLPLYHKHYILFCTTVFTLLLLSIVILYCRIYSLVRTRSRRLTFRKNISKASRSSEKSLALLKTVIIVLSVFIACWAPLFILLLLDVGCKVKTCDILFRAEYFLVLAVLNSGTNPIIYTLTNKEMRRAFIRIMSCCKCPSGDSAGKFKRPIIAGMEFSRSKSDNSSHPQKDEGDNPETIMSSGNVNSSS
Sequence of Sphingosine 1-phosphate receptor 5 (Q9H228 whole entry): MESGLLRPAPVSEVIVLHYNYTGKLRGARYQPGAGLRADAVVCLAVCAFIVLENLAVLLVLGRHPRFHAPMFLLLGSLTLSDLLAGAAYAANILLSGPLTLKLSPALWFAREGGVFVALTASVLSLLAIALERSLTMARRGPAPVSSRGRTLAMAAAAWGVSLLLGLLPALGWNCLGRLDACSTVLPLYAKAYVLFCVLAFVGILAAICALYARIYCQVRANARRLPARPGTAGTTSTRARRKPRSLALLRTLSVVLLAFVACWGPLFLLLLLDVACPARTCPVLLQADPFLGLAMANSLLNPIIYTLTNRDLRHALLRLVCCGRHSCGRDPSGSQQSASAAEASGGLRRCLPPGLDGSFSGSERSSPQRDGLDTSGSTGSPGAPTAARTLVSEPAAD
T4 sequence (Q99500 whole entry): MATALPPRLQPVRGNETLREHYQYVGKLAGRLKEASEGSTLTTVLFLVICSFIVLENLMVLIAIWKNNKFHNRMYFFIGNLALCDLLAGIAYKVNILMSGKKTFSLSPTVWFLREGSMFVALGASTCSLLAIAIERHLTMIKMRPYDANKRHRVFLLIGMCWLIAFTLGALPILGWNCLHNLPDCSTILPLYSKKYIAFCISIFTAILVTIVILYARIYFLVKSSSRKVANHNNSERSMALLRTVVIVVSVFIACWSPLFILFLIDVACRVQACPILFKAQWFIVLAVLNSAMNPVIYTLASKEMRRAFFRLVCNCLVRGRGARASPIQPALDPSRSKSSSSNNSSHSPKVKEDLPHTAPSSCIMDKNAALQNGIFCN
Sequence of Sphingosine 1-phosphate receptor 2 (O95136 whole entry): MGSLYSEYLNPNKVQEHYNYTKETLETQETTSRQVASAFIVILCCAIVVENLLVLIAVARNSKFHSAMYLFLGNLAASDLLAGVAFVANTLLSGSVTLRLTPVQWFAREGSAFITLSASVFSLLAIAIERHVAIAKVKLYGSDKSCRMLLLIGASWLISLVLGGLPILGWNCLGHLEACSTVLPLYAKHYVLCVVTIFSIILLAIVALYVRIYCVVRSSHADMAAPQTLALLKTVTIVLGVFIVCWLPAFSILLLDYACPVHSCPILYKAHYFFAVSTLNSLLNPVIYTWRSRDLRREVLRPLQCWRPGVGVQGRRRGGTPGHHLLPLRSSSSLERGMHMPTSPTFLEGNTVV

SMILES | Activity [2] | ED50 [3] | EC50 [8] | EC50 [9] | EC50 [10] | EC50 [11] | EC50 [12] | further results
CCCCCCCCc1ccc2c(c1)CC[C@@H](C(N)(CO)CO)C2 | 9% | 0.2 mg/kg |  |  |  |  |  | Activity [1]: 4%; Activity [4]: 3%; Activity [5]: Active; F [6]: 55%; t1/2 [7]: 16 h
CCCCCCCCc1ccc2c(c1)CC[C@H]([C@](C)(N)COP(=O)(O)O)C2 |  |  | 13.6 nM | > 5000 nM | > 5000 nM | 922 nM |  | 
CCCCCCCCc1ccc2c(c1)CC[C@H]([C@](C)(N)CO)C2 | 0% | > 5 mg/kg |  |  |  |  |  | 
CCCCCCCCc1ccc(CC[C@@](N)(CO)COP(=O)(O)O)cc1 |  |  |  |  |  |  | 137 nM | 
CCCCCCCCc1ccc2c(c1)CC[C@@H](C(N)(CO)COP(=O)(O)O)C2 (stereo in doubt) |  |  | 0.344 nM | > 5000 nM | 133 nM | 25.7 nM | 41.4 nM | EC50 [13]: > 5000 nM; EC50 [14]: 33 nM
CCCCCCCCc1ccc(CC[C@](N)(CO)COP(=O)(O)O)cc1 [FTY720-P] |  |  |  |  |  |  | 22.2 nM | 
CCCCCCCCc1ccc2c(c1)CC[C@H]([C@@](C)(N)COP(=O)(O)O)C2 |  |  | 0.018 nM | 0.286 nM | 1.79 nM | 97.4 nM | 16 nM | EC50 [13]: > 5000 nM; EC50 [14]: 1.49 nM
CCCCCCCCc1ccc2c(c1)CC[C@@H]([C@](C)(N)CO)C2 | 0% |  |  |  |  |  |  | 
CCCCCCCCc1ccc2c(c1)CC[C@@H](C(N)(CO)COP(=O)(O)O)C2 (single isomer, unassigned; isomer 1) |  |  | 0.077 nM | 0.215 nM | 1.95 nM | 18.7 nM | 5.39 nM | EC50 [13]: > 5000 nM; EC50 [14]: 0.33 nM
CCCCCCCCc1ccc2c(c1)CC[C@H](C(N)(CO)CO)C2 | 3% | 3.8 mg/kg |  |  |  |  |  | 
CCCCCCCCc1ccc2c(c1)CC[C@@H]([C@@](C)(N)CO)C2 | 38% | 0.8 mg/kg |  |  |  |  |  | 
CCCCCCCCCCCCC/C=C/[C@@H](O)[C@@H](N)COP(=O)(O)O |  |  | 0.027 nM | 0.449 nM |  |  |  | 
CCCCCCCCc1ccc2c(c1)CC[C@H]([C@@](C)(N)CO)C2 | 77% | 0.1 mg/kg |  |  |  |  |  | Activity [1]: 90%; Activity [4]: 63%; Activity [15]: Active; F [16]: 55%; clearance [17]: 5.5 mL/min/kg; t1/2 [18]: 36 h; Vd [19]: 16 L/kg
CCCCCCCCc1ccc2c(c1)CC[C@@H]([C@](C)(N)COP(=O)(O)O)C2 |  |  | 19.7 nM | > 5000 nM |  |  |  | 
CCCCCCCCc1ccc(CCC(N)(CO)CO)cc1 [FINGOLIMOD] | 76% | 0.03 mg/kg |  |  |  |  |  | Activity [1]: 87%
CCCCCCCCc1ccc2c(c1)CC[C@@H]([C@@](C)(N)COP(=O)(O)O)C2 |  |  | 0.088 nM | 0.15 nM | 5.62 nM | 38.2 nM |  | 
